From patent US11878059B2, “Sonodynamic therapy” (UNIVERSITY OF ULSTER, priority 2017, dated 2024)

How the values were obtained:
[1] = tested on: BxPc-3; assay: MTT cytotoxicity of Biotin-Gem and Biotin-Gem-RB in BxPC-3 cells; type: cell-based, human; settings: 48 h incubation
Description: To ensure the antimetabolite efficacy of Biotin-Gem and Biotin-Gem-RB were unaffected by chemical modification, the cytotoxicity of the conjugates was determined in the human pancreatic adenocarcinoma cell line BxPc-3. […] These cells were seeded into 96 well plates at a density of 5000 cells per well. The plates were then incubated for 24 hours followed by the addition of 100 uL of media spiked with either Gem, Biotin-Gem or Biotin-Gem-RB. The concentrations used for Biotin-Gem were […] while for Biotin-Gem-RB, concentrations of 0.01 μM, 0.05 μM, 0.1 μM, 0.5 μM, 1 μM, 5 μM and 10 μM were investigated. Corresponding concentrations of Gem were used in each case. The cells were then further incubated for 48 hours before cell viability was determined using an MTT assay.

[2] = tested on: Panc-1; assay: MTT assay biotin-GEM-RB vs gemcitabine hydrochloride, Panc-1; type: cell-based, human
Description: (§1) Human primary pancreatic adenocarcinoma cell lines BxPc-3, Panc-1 and Mia-PaCa-2 were maintained in RPMI 1640 medium which was supplemented with 100 U/mL penicillin, […] streptomycin, and 10% fetal bovine serum (FBS) and Dulbecco's Modified Eagle's Medium (DMEM) containing 1 g/L glucose and supplemented with 100 U/mL penicillin, […] streptomycin, and 10% fetal bovine serum (FBS) respectively in a humidified 5% CO2 atmosphere at 37° C. These cells were seeded into 96 well plates at a density of 5000 cells per well. The plates were then incubated for 24 hours followed by the addition of 100 μL of media spiked with Gem or Biotin-Gem-RB at concentrations ranging from 0.001-1000 μM. The cells were then further incubated for 48 hours before cell viability was determined by an MTT assay.

[3] = tested on: BxPc-3; assay: MTT assay biotin-GEM-RB vs gemcitabine hydrochloride, BxPc-3; type: cell-based, human; settings: BxPc-3, 0-1000 μM, 48 h
Description: as §1

[4] = tested on: Mia-PaCa-2; assay: MTT assay biotin-GEM-RB vs gemcitabine hydrochloride, Mia-PaCa-2; type: cell-based, human; settings: Mia-PaCa-2, 0-1000 μM, 48 h
Description: as §1

[5] = tested on: MCF-7 cells; assay: Colony forming assay in MCF-7 cells; type: cell-based, human; settings: +US (1 MHz, 30 s, 3 Wcm^−2); PTX 1 nM, Dox 10 nM, RB 10 nM, 3 hours
Description: FIG. 16 is a plot showing % survival fraction from a MCF-7 colony forming assay. Cells following treatment with PTX/Dox/RB alone (Drug combo) or following treatment with ultrasound (Drug Combo+US). After treatment cells were incubated for 8 days followed by fixation and staining. Crystal violet staining was quantified via Image J.
In this study, the concentration of each individual drug used was intentionally sub-lethal, so that any benefit obtained by the combination treatment could easily be identified. In addition, as the action of ultrasound can influence the cellular uptake of drugs as a result of sonoporation, cells treated with Dox or PTX were also exposed to ultrasound, to control for any potential ultrasound mediated effects on cell viability as a result of sonoporation. Following treatment, cell viability was determined using a colony forming assay.
MCF-7 cells were seeded (5×10^3) in a 96 well plate, 24 hours later cells were treated with free drug as a single treatment of PTX (1 nM), Dox (10 nM), RB (10 nM) or combination treatment for 3 hours followed by media replacement. Selected wells were treated with ultrasound delivered using a Sonidel SP100 sonoporator (1 MHz, 30 seconds, 3 Wcm^−2, duty cycle=50%, and PRF=100 Hz). The following day cells were pooled from 2 wells and seeded in a 6 well plate. Plates were placed in an incubator for 7 days. Media was removed from wells, fixation/staining solution was added at room temperature for 20 minutes. Fixative/staining solution contained: 0.5 g crystal violet (0.05%), 27 ml 37% formaldehyde, 100 ml 10×PBS (X1), 10 mL methanol (1%) and 863 mL of distilled water. Solution was removed and washed under running water. Pictures were taking using a high-resolution camera and colony formation was analysed via Image J.

[6] = Body weight of Mia-PaCa-2 tumour bearing mice (FIG. 11b); type: in vivo, SCID mice; settings: clinical dose 120 mg/Kg I.P., day 6
Description: The microbubble suspension (6.86×10^7±1.99×10^6 MB) was delivered as a 100 uL I.V injection (PTX—2.44±0.37 mg/Kg, GEM—0.5±0.04 mg/Kg, RB—1.85±0.14 mg/Kg). Gemcitabine hydrochloride was dissolved in sterile PBS and administered as a 100 uL I.P injection (120 mg/Kg). Ultrasound treatment was delivered for 3.5 minutes at frequency of 1 MHz, an ultrasound power density of 3.5 W/cm^2 and a duty cycle of 30% immediately after injection and 30 minutes following. Error bars represent±the standard error.
Mia-Paca-2 cells were maintained in DMEM medium and BxPc-3 cells were maintained in RPMI 1640 both supplemented with 100 U/mL penicillin, […] streptomycin, and 10% fetal bovine serum (FBS) in a humidified 5% CO2 atmosphere at 37° C. Cells (5×10^6) were re-suspended in Matrigel® and implanted subcutaneously into the rear dorsum of SCID (C.B-17/IcrHan®Hsd-Prkdcscid) mice. Tumours reached treatable size within 3 weeks. Tumour measurements were taken daily using callipers. Once the tumours had reached an average volume of 150 mm^3 animals were randomly assigned into treatment groups. Animals were anaesthetised by intraperitoneal injection of hypnorm:hypnovel:ice cold sterile water for injection (1:2:1). […] Tumour growth was monitored daily throughout the course of the treatment.

Nc1ccn([C@@H]2O[C@H](COC(=O)CCCCCCC(=O)NCCN(CCNC(=O)CCCCCCC(=O)NCCOC(=O)c3c(Cl)c(Cl)c(Cl)c(Cl)c3-c3c4cc(I)c(=O)c(I)c-4oc4c(I)c(O)c(I)cc34)CCNC(=O)CCCCC3SCC4NC(=O)NC43)[C@@H](O)C2(F)F)c(=O)n1 (stereo partly drawn) [Biotin-Gem-RB, ((2R,3R, 5R)-5-(4-amino-2-oxopyrimidin-1 (2H)-yl)-4,4-difluoro-3-hydroxytetrahydrofuran-2-yl)methyl 4,11,19-trioxo-15-(2-(5-(2-oxohexahydro-1H-thieno[3,4-d]imidazol-4-yl)pentanamido)ethyl)-1-((2,3,4,5-tetrachloro-6-(6-hydroxy-2,4,5,7-tetraiodo-3-oxo-3H-xanthen-9-yl)benzoyl)oxy)-3,12,15,18-tetraazahexacosan-26-oate]
efficacy (cell viability, MTT) compared to Gemcitabine ([1]; 0.01-10 μM): no statistically significant difference in efficacy | efficacy vs gemcitabine HCl (MTT) ([2]; Panc-1, 0-1000 μM, 48 h): no decrease in efficacy | efficacy vs gemcitabine HCl (MTT) ([2]; Panc-1, above 10 μM): significant increase in efficacy | efficacy vs gemcitabine HCl (MTT) [3]: no decrease in efficacy | efficacy vs gemcitabine HCl (MTT) [4]: no decrease in efficacy

O=C1OC2(c3cc(I)c(O)c(I)c3Oc3c2cc(I)c(O)c3I)c2c(Cl)c(Cl)c(Cl)c(Cl)c21 [RB, Rose Bengal]
reduction of colony number compared to untreated cells [5]: 18.8%

COc1cccc2c1C(=O)c1c(O)c3c(c(O)c1C2=O)C[C@@](O)(C(=O)CO)C[C@@H]3O[C@H]1C[C@H](N)[C@H](O)[C@H](C)O1 [Dox, doxorubicin]
reduction of colony number compared to untreated cells [5]: 29.3%

CC(=O)O[C@H]1C(=O)[C@@]2(C)[C@H]([C@H](OC(=O)c3ccccc3)[C@]3(O)C[C@H](OC(=O)[C@H](O)[C@@H](NC(=O)c4ccccc4)c4ccccc4)C(C)=C1C3(C)C)[C@]1(OC(C)=O)CO[C@@H]1C[C@@H]2O [PTX, paclitaxel]
reduction of colony number compared to untreated cells [5]: 7.3%

Nc1ccn([C@@H]2O[C@H](CO)[C@@H](O)C2(F)F)c(=O)n1 [gemcitabine]
decrease in body weight [6]: 12%

Nc1ccn([C@@H]2O[C@H](COC(=O)OCCNC(=O)CCCCC3SCC4NC(=O)NC43)[C@@H](O)C2(F)F)c(=O)n1 (stereo partly drawn) [Biotin-Gem, (2R,3R,5R)-5-(4-amino-2-oxopyrimidin-1(2H)-yl)-4,4-difluoro-3 hydroxytetrahydrofuran-2-yl)methyl (2-(5-(2-oxohexahydro-1H-thieno[3,4-d]imidazol-4-yl)pentanamido)ethyl) carbonate]
efficacy (cell viability, MTT) compared to Gemcitabine ([1]; 0-100 μM): no statistically significant difference in efficacy
